Several values for one entry are separate records, joined by “and”; a condition that tells them apart may be missing. Equal entries are not always repeated. Entries after “also recorded” stand apart in the source; their conditions may differ.
Experiments:
[1] = tested on: human A1AR; test: Radioligand binding assay, displacement of [3H]DPCPX; conditions: A1AR versus A2AAR; for A1AR selectivity index: from Ki values; for selectivity for the A1AR: Fig. 1
Procedure: (§1) Radioligand binding assays. HEK293 cells expressing the human A1- or A2AARs were cultured in DMEM supplemented with 10% fetal bovine serum, 100 Units/ml penicillin, 100 µg/ml streptomycin, and 2 µmol/ml glutamine. Cells were detached from plates by scraping into cold PBS and centrifuged at 250 g for 5 min. The pellets were resuspended in ice-cold Tris HCl buffer (50 mM, pH 7.4) and then homogenized. After homogenization and suspension, cells were centrifuged at 1000 g for 10 min, and the pellet was discarded.
(§2) The suspension was then re-centrifuged at 20,000 g for 60 min at 4 °C. The pellets were resuspended in buffer containing 3 Units/ml adenosine deaminase and incubated at 37°C for 30 min. The aliquots of membrane preparations were stored at −80°C until the binding experiments. For displacement binding assays, membrane preparations (20 µg proteins/tube) were incubated at 25°C for 60 min with a final concentration of [3H]DPCPX (0.5 nM) and [3H]ZM241385 (1.0 nM) for A1- and A2AARs, respectively, in a mixture containing 50 µL of increasing concentrations of a test ligand in a total assay volume of 200 µL of 50 mM Tris HCl, pH 7.4, containing 10 mM MgCl2. Nonspecific binding was determined using 100 µM of XAC. The reaction was terminated by filtration with GF/B filters using a Brandel 24-channel harvester. Filters were placed in scintillation vials containing 5 ml of Hydrofluor scintillation buffer and counted using a PerkinElmer Tricarb 2810TR liquid scintillation counter. […]
(§3) Table S1. Binding affinities of compounds 1-10 based on displacement of [3H]DPCPX and [3H]ZM241385 at the A1AR and A2AAR, respectively.
(§4) Compound Substituent A1AR A2AAR index […]
(§5) a Ki values are expressed as means ± SEM from (2-4) independent experiments. b Free energy of binding (ΔG) calculated from experimental binding affinities (kcal/mol) / Number of heavy atoms (HA). The ligand efficiency (LE) = −ΔG/HA. c Values from Matricon et al.8
(§6) Table S3. Binding affinities of compounds 11-26 based on displacement of [3H]DPCPX and […]
(§7) a K values are expressed as means ± SEM from (2-4) independent experiments.
(§8) Free energy of binding (ΔG) calculated from experimental binding affinities (kcal/mol) / Number of heavy

[2] = biological target: T1, human A1AR (Homo sapiens, UniProt P30542); test: as above; conditions: for Free energy of binding (ΔG) A1AR: calculated from experimental binding affinities
T1 construct: expressed in transfected cells; host or cells: HEK293 (membrane preparations)
T1 sequence (P30542 1-326): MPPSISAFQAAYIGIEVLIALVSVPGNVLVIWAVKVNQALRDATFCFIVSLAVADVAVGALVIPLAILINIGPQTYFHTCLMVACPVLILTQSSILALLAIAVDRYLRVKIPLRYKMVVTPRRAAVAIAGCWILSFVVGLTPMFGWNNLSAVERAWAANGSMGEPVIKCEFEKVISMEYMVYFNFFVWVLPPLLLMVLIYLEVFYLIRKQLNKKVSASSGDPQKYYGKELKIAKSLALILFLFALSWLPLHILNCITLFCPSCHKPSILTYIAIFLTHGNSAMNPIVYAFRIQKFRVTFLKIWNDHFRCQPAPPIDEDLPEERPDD
Procedure: as §1, §2, §3, §4, §5, §6, §7, §8

[3] = biological target: T2, human A2AAR (Homo sapiens, UniProt P29274); test: Radioligand binding assay, displacement of [3H]ZM241385; conditions: for Free energy of binding (ΔG) A2AAR: calculated from experimental binding affinities; for Ki: displacement of [3H]ZM241385, means ± SEM from 2-4 independent experiments; for ΔΔG Experimental A2AAR: based on Table S3
T2 construct: expressed in transfected cells; host or cells: HEK293 (membrane preparations)
Procedure: as §1, §2, §3, §4, §5, §6, §7, §8

[4] = biological target: T2, human A2AAR; test: cAMP functional assay; assay type: cell-based; conditions: HEK293 cells, intracellular cAMP, n=3
Procedure: (§9) Functional assays measuring intracellular concentrations of cAMP were performed at the human A1AR and A2AAR to determine the efficacy of compounds 22 and 26. […]
cAMP assay. HEK293 cells were grown in DMEM supplemented with 10% fetal bovine serum, 100 Units/ml penicillin, 100 µg/ml streptomycin, and 2 µmol/ml glutamine. After 24 hours, cells were treated with assay buffer containing rolipram (10 µM), PSB603 (1 […]
The reaction was terminated upon removal of the supernatant, and addition of 100 µl Tween-20 (0.3%). Intracellular cAMP levels […]
(§10) were measured with an ALPHAScreen cAMP assay kit following the instructions from the manufacturer (PerkinElmer).

[5] = biological target: T1, human A1AR; test: cAMP functional assay; assay type: cell-based; conditions: HEK293 cells, intracellular cAMP, n=3
Procedure: as §9
cAMP assay. HEK293 cells were grown in DMEM supplemented with 10% fetal bovine serum, 100 Units/ml penicillin, 100 µg/ml streptomycin, and 2 µmol/ml glutamine. After 24 hours, cells were treated with assay buffer containing rolipram (10 µM), PSB603 (1 µM) and adenosine deaminase (3 units/ml) for 30 min followed by the addition of antagonists for 20 min and subsequent addition of agonists and incubated for another 20 min. For the A1AR assay, after incubation with agonist for 20 min, forskolin (10 µM) was added and incubated for an additional 15 min. The reaction was terminated upon removal of the supernatant, and addition of 100 µl Tween-20 (0.3%). Intracellular cAMP levels […]
as §10

[6] = biological target: hA2AAR; parameters: method as in ChEMBL database; conditions: ligands with < 20 HA; ref ChEMBL database; cited from earlier work
[7] = biological target: hA1AR; parameters: method as in ChEMBL database; conditions: ligands with < 20 HA; ref ChEMBL database; cited from earlier work
[8] = tested on: hA1AR; test: Ki values of known ligands downloaded from the ChEMBL database; assay type: binding, human; conditions: from ChEMBL Ki values hA1AR and hA2AAR
Source text: Table S5. Highest affinity human A1AR ligands (with < 20 HA) in the ChEMBL database compared to compound 22.a […]
a Known A1AR and A2AAR ligands with determined Ki values were downloaded from the ChEMBL database.
Compounds with motifs found in pan-assay interference compounds16 were excluded using OpenEye Toolkits 2020.2.0 OpenEye Scientific Software, Santa Fe, NM. http://www.eyesopen.com.

[9] = displacement of [3H]DPCPX, means ± SEM from 2-4 independent experiments
[10] = reference compound 9, based on Table S3
[11] = compound 1 as reference, based on Table S1
[12] = radioligand binding, Fig. 1, Table S5
[13] = reference compound 5, based on Table S3

T2 sequence (P29274 whole entry): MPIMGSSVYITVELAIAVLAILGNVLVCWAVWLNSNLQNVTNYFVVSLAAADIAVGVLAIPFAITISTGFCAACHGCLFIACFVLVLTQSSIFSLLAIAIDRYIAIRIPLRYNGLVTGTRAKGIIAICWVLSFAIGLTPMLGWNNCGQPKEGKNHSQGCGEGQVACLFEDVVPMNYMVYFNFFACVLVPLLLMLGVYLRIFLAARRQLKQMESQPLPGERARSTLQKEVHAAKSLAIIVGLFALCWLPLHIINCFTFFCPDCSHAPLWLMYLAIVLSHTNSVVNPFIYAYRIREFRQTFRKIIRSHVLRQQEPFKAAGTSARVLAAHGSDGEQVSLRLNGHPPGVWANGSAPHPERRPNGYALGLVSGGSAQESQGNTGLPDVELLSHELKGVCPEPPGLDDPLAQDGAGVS

SMILES | A1AR selectivity index [1] | Free energy of binding (ΔG) A1AR [2] [kJ/mol] | Ki [2, 9] | ΔΔG Experimental A1AR [2, 10] | Free energy of binding (ΔG) A2AAR [3] [kJ/mol] | Ki [3] [µM] | ΔΔG Experimental A2AAR ([3]; reference compound 9) | ΔΔG Experimental A1AR [2, 13] | ΔΔG Experimental A2AAR ([3]; reference compound 5) [kJ/mol] | also measured
Cc1ccc2sc(NC(=O)C3(C)CCCC3)nc2c1 [Compound 23] | 9.8 | -41.4 | 0.057 ± 0.015 µM | –1.4 ± 0.2 kcal/mol | -36 | 0.561 ± 0.109 | –0.6 ± 0.1 kcal/mol |  |  | 
CCC(CC)C(=O)Nc1nc2ccccc2s1 [Compound 6] | 2.8 | -34.3 | 1.04 µM and 1 µM |  | -31.8 | 2.92 ± 0.72 |  |  |  | ΔΔG Experimental A1AR [2, 11]: –1.4 ± 0.1 kcal/mol
CC1(C(=O)Nc2nc3cc(Br)ccc3s2)CCCC1 [Compound 22] | 38.4 | -46 |  | –2.4 ± 0.1 kcal/mol | -36.8 | 0.384 ± 0.082 | –0.8 ± 0.1 kcal/mol |  |  | efficacy in cAMP assay at A2AAR [4]: antagonists; also recorded: Antagonism; selectivity for the A1AR [1]: 38 fold; improvement of A1AR affinity ([2]; compared to compound 1): > 1000 fold; Ki [2, 12]: 0.01 µM; efficacy in cAMP assay at A1AR [5]: antagonists; also recorded: Antagonism
Cc1cccc2sc(NC(=O)C(C)(C)C)nc12 [Compound 12] | 6.5 | -34.3 | 1.04 µM and 1 µM |  | -29.7 | 6.75 ± 0.92 |  | 3.3 ± 0.42 kJ/mol | 3.8 ± 0.42 | 
O=C(Nc1nc2ccccc2s1)c1ccccc1 [Compound 10] | 0.6 | -35.6 | 0.67 ± 0.08 µM |  | -36.8 | 0.386 ± 0.043 |  |  |  | ΔΔG Experimental A1AR [2, 11]: –1.7 ± 0.1 kcal/mol; A2AAR selectivity ([3]; A2AAR versus A1AR): 2 fold
Cc1ccc2nc(NC(=O)C(C)(C)C)sc2c1 [Compound 11] | < 0.3 | > -23 | > 100 µM |  | -26.4 | 25.8 ± 13.2 |  | > 14.6 kJ/mol | 7.11 ± 2.5 | 
Cc1nc(N)c2nc(-n3nccn3)n(C)c2n1 [CHEMBL194290] |  |  |  |  |  |  |  |  |  | Ki [6]: 0.0704 µM; Ki [7]: 0.0104 µM; A1AR selectivity [8]: 6.8
Cn1ncc2nc(N)n3nc(-c4ccco4)nc3c21 [CHEMBL1935752] |  |  |  |  |  |  |  |  |  | Ki [6]: 0.0036 µM; Ki [7]: 0.01 µM; A1AR selectivity [8]: 0.4
COc1ccc2sc(NC(=O)C(C)(C)C)nc2c1 [Compound 18] | 10.5 | -39.3 | 0.152 ± 0.057 µM |  | -33.5 | 1.6 ± 0.51 |  | –0.4 ± 0.3 kcal/mol | 0.42 ± 2.1 | 
CC1(C(=O)Nc2nc3ccccc3s2)CCCC1 [Compound 20] |  | -40.2 |  | –1.1 ± 0.1 kcal/mol | -36 | 0.572 ± 0.064 | –0.6 ± 0.1 kcal/mol |  |  | selectivity for the A1AR [1]: 6 fold; Ki [2, 12]: 0.095 µM

— paper PMC8603191, “Fragment-based design of selective GPCR ligands guided by free energy simulations” (Chemical communications (Cambridge, England), 2021)
